Assays:
[1] = system: Adipose-derived Mesenchymal Stem Cells (MSCs); experiment: Immunofluorescence analysis of chondrocyte marker proteins on day 21 of in vitro chondrogenic differentiation (monolayer culture); assay type: cell-based, human
Method: (§1) In Vitro Chondrogenic Differentiation: In Vitro, chondrogenic differentiation using monolayer culture was performed. P4 MSCs were seeded in Gelatin-coated 24 well plates at 6000 cells/cm2. MSCs were expanded for 3 days before switching to the following Chondrocyte differentiation media (CDM) for 21 days (FIG. 1A).
(§2) Standard chondrocyte differentiation medium (STD) consists of DMEM Low Glucose (DMEM LG; Gibco #31600083), supplemented with 0.5 µg/ml hydrocortisone (Sigma-Aldrich #H0888), 1% Fetal bovine serum (FBS; Biowest #S181B), 1 X Insulin-Transferrin-Selenium-X (ITS-X; Gibo #51500056) or ITS+1 Liquid Media Supplement (Sigma-Aldrich #I2521), 10ng/ml recombinant human TGF-beta 3 (R&D Systems #8420-B3-025), […] L-ascorbate-2-phosphate (Sigma-Aldrich #49752), 1% Penicillin-Streptomycin (pen-strep; Gibco #15140122) and 500ng/ml Amphotericin B (Amp B; Gibco #15290026). Standard CDM (STD) will be used as a control (FIG. 1A).
Standard chondrocyte differentiation medium (STD) or CDM1 is then supplemented with 3 different treatment groups: 100 nM Avenanthramide C (Avn C; Sigma-Aldrich #36465) in CDM2, 500 ug/mL Chondroitin Sulfate (5 x CS; Sigma-Aldrich #C4384) in CDM3, and combination of 100 nM Avenanthramide C and 500 ug/mL Chondroitin Sulfate in CDM4 (FIG. 1A). […]

[2] = system: Adipose-derived Mesenchymal Stem Cells (MSCs); experiment: RT-PCR mRNA expression analysis of chondrocyte markers relative to GAPDH; assay type: cell-based, human; conditions: Avn C treatment alone
Method: as §1
as §2, with “1A). […]” for “1A).”
It is imperative to investigate the impact of Avn C on transcriptionally regulated chondrocyte properties, both when used individually and in conjunction with chondroitin sulfate at an optimal dosage of 500ug/mL (5X CS). To assess this, RT-PCR mRNA expression analysis is employed, which offers precise quantitative data on relative mRNA expressions. […]

[3] = system: mouse articular chondrocytes; conditions: cited from earlier work

## O=C(/C=C/c1ccc(O)c(O)c1)Nc1ccc(O)cc1C(=O)O [Avn C, Avenanthramide C]
[1]; 21-day treatment, CDM2 (STD + 100 nM Avn C) compared to CDM1 (STD)
  expression of the COL2A1 protein (immunofluorescence signals): significantly increasing the expression of the COL2A1 protein
[1]; 21 days in STD with 0 nM, 10 nM, 100 nM, 1 uM, 10 uM, 50 uM Avn C, MSCs from a different individual
  optimal concentration of Avn C for enhancing Collagen 2A1 protein signals: around 100 nM
[2]
  COL2A1 expression, transcriptional versus protein level: influences COL2A1 at protein levels (FIGS. 2 and 3) rather than at the transcriptional level
[3]; induced by IL-1β in mouse articular chondrocytes
  expression of catabolic factors MMP-3, -12, and -13: effectively suppressed the expression of catabolic factors
[3]; mouse articular chondrocytes
  IL-1β-mediated reduction of mature factors Collagen 2 (COL2A1) and SOX9: did not impact the IL-1β-mediated reduction of mature factors
